Test results taken from US6339070B1, “Gene construct encoding a heterologous prodrug-activating enzyme and a cell targeting moiety” (Zeneca Limited, priority 1997, dated 2002).

T1: CEA on LoVo colorectal tumour cells (CEA positive) (human, UniProt P06731 35-685, GPI anchor on the C-terminal residue; heavily N-glycosylated on cells)
T1 construct: also called CEA positive LoVo cells; LoVo, CEA bearing, tumour cells
T1 sequence: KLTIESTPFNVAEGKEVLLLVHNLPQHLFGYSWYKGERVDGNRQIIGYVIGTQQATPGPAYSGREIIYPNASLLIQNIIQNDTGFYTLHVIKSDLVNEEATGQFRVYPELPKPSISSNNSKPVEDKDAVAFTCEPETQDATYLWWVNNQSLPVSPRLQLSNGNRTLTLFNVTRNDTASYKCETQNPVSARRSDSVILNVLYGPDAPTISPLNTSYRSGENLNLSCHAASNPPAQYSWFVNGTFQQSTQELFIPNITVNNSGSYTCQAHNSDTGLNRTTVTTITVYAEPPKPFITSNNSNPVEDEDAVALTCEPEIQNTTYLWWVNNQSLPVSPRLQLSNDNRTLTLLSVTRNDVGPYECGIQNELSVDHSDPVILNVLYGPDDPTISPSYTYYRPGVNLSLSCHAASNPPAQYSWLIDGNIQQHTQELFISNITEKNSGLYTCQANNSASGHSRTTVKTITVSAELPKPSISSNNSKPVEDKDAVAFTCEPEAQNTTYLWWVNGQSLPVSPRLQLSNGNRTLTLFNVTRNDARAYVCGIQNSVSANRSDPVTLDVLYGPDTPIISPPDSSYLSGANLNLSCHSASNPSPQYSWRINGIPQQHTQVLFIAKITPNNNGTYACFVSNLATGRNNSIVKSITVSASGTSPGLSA

T2: human carcinoembryonic antigen (CEA) (human, UniProt P06731 35-685, limits assumed)
T2 construct: CEA as coated on the ELISA plate; also called Carcinoma Embryonic Antigen
T2 sequence (looked up): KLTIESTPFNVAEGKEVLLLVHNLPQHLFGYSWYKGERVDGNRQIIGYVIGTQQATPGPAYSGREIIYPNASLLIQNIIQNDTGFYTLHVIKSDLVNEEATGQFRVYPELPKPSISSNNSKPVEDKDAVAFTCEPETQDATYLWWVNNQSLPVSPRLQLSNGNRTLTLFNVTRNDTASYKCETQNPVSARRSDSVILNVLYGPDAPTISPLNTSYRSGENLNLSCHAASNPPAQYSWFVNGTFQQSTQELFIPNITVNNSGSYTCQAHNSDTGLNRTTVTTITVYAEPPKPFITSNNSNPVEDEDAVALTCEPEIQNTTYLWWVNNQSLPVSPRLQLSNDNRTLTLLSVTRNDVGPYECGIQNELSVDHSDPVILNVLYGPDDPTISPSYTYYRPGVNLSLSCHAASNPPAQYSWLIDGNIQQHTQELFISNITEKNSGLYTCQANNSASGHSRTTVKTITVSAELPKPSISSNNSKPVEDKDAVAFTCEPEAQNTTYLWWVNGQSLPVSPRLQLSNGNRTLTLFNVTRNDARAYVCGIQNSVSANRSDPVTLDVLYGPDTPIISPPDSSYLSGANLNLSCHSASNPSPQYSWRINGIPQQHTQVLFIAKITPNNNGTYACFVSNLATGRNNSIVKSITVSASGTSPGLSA


What was measured:
[1] = system: HCT116 cells transfected with the antibody-CPG2 fusion protein gene; format: cell-based
[2] = system: established HCT116 tumours produced from non-transfected HCT116 cells; assay: Anti-tumour activity, fusion gene vector injected intra-tumourally into established HCT116 tumours, then PGP; format: in vivo, athymic nude mice; conditions: PGP after 1-3 days, vs PBS
Experimental: (§1) Thus non-transfected HCT116 cells are injected into athymic nude mice (1×10^7 tumour cells per mouse) and once the tumours are 5-7 mm in diameter the vector containing the antibody-enzyme fusion protein gene is injected intra-tumourally. After 1-3 days to allow the antibody-enzyme fusion protein to be expressed by and bind to the HCT116 tumour cells, the PGP prodrug is administered as described above.

[3] = system: non-transfected HCT116 cells; format: cell-based; conditions: read-out: IC50 (concentration required to inhibit cell growth by 50%)
[4] = system: LoVo tumours established from recombinant LoVo cells or recombinant Lovo/Parental LoVo cell mixes; assay: Anti-tumour activity in LoVo tumours expressing the antibody-CPG2 fusion protein; format: in vivo, athymic nude mice
Experimental: (§2) Recombinant LoVo (A5B7-CPG2)2 fusion protein expressing tumour cells or mixes of recombinant and parental LoVo cells were injected subcutaneously into athymic nude mice as described in Example 9.
(§3) When the tumours are 5-7 mm in diameter the PGP prodrug is administered i.p. to the mice (3 doses in DMSO/0.15 M sodium bicarbonate buffer at hourly intervals over 2 h in dose ranges of 40-80 mg kg^−1).
(§4) Anti-tumour effects are judged by measuring the length of the tumours in two directions and calculating the tumour volume using the formula
(§5) where D is the larger diameter and d is the smaller diameter of the tumour. Tumour volume may be expressed relative to the tumour volume at the time the PGP prodrug is administered or alternatively the median tumouT volumes may be calculated. The anti-tumour activity is compared to control groups receiving either transfected or non-transfected tumour cells and buffer without PGP prodrug.

[5] = system: LoVo cells transfected with an antibody-CPG2 fusion protein gene; assay: In vitro prodrug killing, LoVo cells transfected with antibody-CPG2 fusion protein gene; format: cell-based
[6] = system: established LoVo tumours produced from non-transfected parental LoVo cells; assay: Anti-tumour activity, fusion gene vector injected intra-tumourally into established LoVo tumours, then PGP; format: in vivo, athymic nude mice; conditions: PGP after 1-3 days, vs controls
Experimental: as §1, with “non-transfected LoVo” for “non-transfected HCT116”, “expressed by,” for “expressed by”, “bind to,” for “bind to”, “the LoVo” for “the HCT116”

[7] = system: HCT116 tumours established from non-transfected cells; assay: Anti-tumour activity in HCT116 tumours from non-transfected cells; format: in vivo, athymic nude mice; conditions: PGP i.p., 3 doses at hourly intervals, 5-25 mg kg^-1
Experimental: (§6) HCT116 tumour cells transfected with the antibody-CPG2 fusion protein gene or control non-transfected HCT116 tumour cells are injected subcutaneously into athymic nude mice (10^7 tumour cells per mouse). When the turnours are 5-7 mm in diameter the PGP prodrug is administered i.p. to the mice (3 doses at hourly intervals over 2 h in dose ranges of 5-25 mg kg^−1). The anti-tumour effects are judged by measuring the length of the tumours in two directions and calculating the tumour volume using the formula: […]
(§7) where D is the larger diameter and d is the smaller diameter of the tumour.
(§8) Tumour volume is expressed relative to the tumour volume at the time the PGP prodrug is administered. The anti-tumour activity is compared to a control group receiving either transfected or non-transfected tumour cells and PBS ([…], 3.4 mM KCl, 12 mM Na2HPO4 and 1.8 mM KH2PO4, pH 7.2) instead of the PGP prodrug.

[8] = system: non-transfected LoVo cells; assay: In vitro prodrug killing, non-transfected LoVo cells; format: cell-based
[9] = system: LoVo tumours established from non-transfected cells; assay: Anti-tumour activity in LoVo tumours from non-transfected cells; format: in vivo, athymic nude mice; conditions: PGP i.p., 3 doses at hourly intervals, 40-80 mg kg^-1
Experimental: as §2, §3, §4, §5

[10] = system: HCT116 tumours established from transfected HCT116 cells; assay: Anti-tumour activity in HCT116 tumours from transfected cells; format: in vivo, athymic nude mice; conditions: PGP i.p., 3 doses at hourly intervals, 5-25 mg kg^-1, vs PBS
Experimental: as §6, §7, §8

[11] = biological target: T1, CEA on LoVo colorectal tumour cells …; assay: cell based ELISA on fixed cells, anti-human kappa HRP detection, OD 490 nm
Experimental: 100 µl of 6% formaldehyde was diluted in DMEM and left for 1 hour at 4°. Plates were centrifuged and washed 3 times in PBS containing 0.05% Tween™ by immersion soaking (first two washes for 2 minutes and the final wash for 5 minutes).
Colour was allowed to develop for about 5 min, stopped with 75 μl per well of 2M H_2SO_4 and OD read at 490 nm.

[12] = biological target: T2, human carcinoembryonic antigen (CEA); assay: CEA ELISA, COS-7 supernatant, anti-human kappa or anti-CPG2 reporter antibody
Experimental: For the CEA ELISA each well of a 96 well immunoplate (NUNC MAXISORB™) was coated with 50 ng CEA in 50 mM carbonate/bicarbonate coating buffer pH9.6 (buffer capsules—Sigma C3041) and incubated at 4° overnight. The plate was washed three times with PBS-TWEEN™ (PBS+ 0.05% TWEEN™ 20) and then blocked 150 μl per well of 1% BSA in PBS-TWEEN™ for 1 hour at room temperature. The plate was washed three times with PBS-TWEEN™, 100 μl of test sample added per well and incubated at room temperature for 2 hours. […] The plate was washed three times with PBS-TWEEN™ and then once more with PBS. To detect binding, add 100 μl per well of developing solution (one capsule of phosphate-citrate buffer—Sigma P4922—dissolved in 100 ml H_2O to which is added one 30 mg tablet o-phenylenediamine dihydrochloride—Sigma P8412) and incubated for up to 15 minutes. The reaction was stopped by adding 75 μl 2M H_2SO_4, and absorbance read at 490 nm.
The CEA ELISA using an anti CPG2 reporter antibody was essentially as above but instead of HRPO-labelled goat anti-human kappa antibody an 1/1000 dil. of a rabbit anti-CPG2 polyclonal sera was added, in 1% BSA in PBS-TWEEN™ and incubated at room temperature on a rocking platform for at 2 hours. The plate was washed three times with PBS-TWEEN™. […] The reaction was stopped by adding 75 μl 2M H_2SO_4, and absorbance read at 490 nm.

Molecule | sensitivity of transfected compared to non-transfected HCT116 cells in terms of cell killing [1] | IC50 ([1]; read-out: IC50 (concentration required to inhibit cell growth by 50%)) [µM] | anti-tumour activity [2] | IC50 [3] [µM] | tumour growth delay ([4]; 60 mg/kg doses of prodrug, FIG. 5) [days] | median tumour volume relative to initial size ([4]; 60 mg/kg doses of prodrug, day 16 post-dose, FIG. 5) [times their initial size] | anti-tumour effect ([4]; PGP i.p., 3 doses at hourly intervals, 40-80 mg kg^-1, vs controls) | conversion of prodrug into active drug by cells ([5]; transfected LoVo cells) | sensitivity of transfected compared to non-transfected LoVo cells in terms of cell killing ([5]; transfected vs non-transfected LoVo) | anti-tumour activity [6] | anti-tumour activity [7] | conversion of prodrug into active drug by cells [8] | anti-tumour activity [9] | anti-tumour effect [10] | binding result [11] | binding result [12]
O=C(O)CC[C@H](NC(=O)Oc1ccc(N(CCCl)CCCl)cc1)C(=O)O [PGP, N-(4-[N,N-bis(2-chloroethyl)amino]-phenoxycarbonyl)-L-glutamic acid] | over 100 fold | ~1 | significant anti-tumour activity | ~200 | ≥ 11 | 3 | significant anti-tumour effect | can convert the PGP prodrug into the more potent active drug | over 100 fold | significant anti-tumour activity | no significant anti-tumour activity | unable to convert the prodrug | no significant anti-tumour activity | significant anti-tumour effect | – | –
(A5B7 Fab-CPG2)2 fusion protein (other, Two Fab-CPG2 units dimerise non-covalently through CPG2 (about 180 kDa); Tested as cell culture supernatant (COS-7 or recombinant Colo320DM / LoVo cells); also called (A5B7-CPG2 R6)2 fusion protein; (A5B7-CPG2)2 fusion protein) heavy: EVKLVESGGGLVQPGGSLRLSCATSGFTFTDYYMNWVRQPPGKALEWLGFIGNKANGYTTEYSASVKGRFTISRDKSQSILYLQMNTLRAEDSATYYCTRDRGLRFYFDYWGQGTTLTVSSASTKGPSVFPLAPCSRSTSESTAALGCLVKDYFPEPVTVSWNSGALTSGVHTFPAVLQSSGLYSLSSVVTVPSSNFGTQTYTCNVDHKPSNTKVDKTVGGGGSGGGGSGGGGSQKRDNVLFQAATDEQPAVIKTLEKLVNIETGTGDAEGIAAAGNFLEAELKNLGFTVTRSKSAGLVVGDNIVGKIKGRGGKNLLLMSHMDTVYLKGILAKAPFRVEGDKAYGPGIADDKGGNAVILHTLKLLKEYGVRDYGTITVLFNTDEEKGSFGSRDLIQEEAKLADYVLSFEPTSAGDEKLSLGTSGIAYVQVQITGKASHAGAAPELGVNALVEASDLVLRTMNIDDKAKNLRFQWTIAKAGQVSNIIPASATLNADVRYARNEDFDAAMKTLEERAQQKKLPEADVKVIVTRGRPAFNAGEGGKKLVDKAVAYYKEAGGTLGVEERTGGGTDAAYAALSGKPVIESLGLPGFGYHSDKAEYVDISAIPRRLYMAARLIMDLGAGK light: QTVLSQSPAILSASPGEKVTMTCRASSSVTYIHWYQQKPGSSPKSWIYATSNLASGVPARFSGSGSGTSYSLTISRVEAEDAATYYCQHWSSKPPTFGGGTKLEIKRTVAAPSVFIFPPSDEQLKSGTASVVCLLNNFYPREAKVQWKVDNALQSGNSQESVTEQDSKDSTYSLSSTLTLSKADYEKHKVYACEVTHQGLSSPVTKSFNRGEC | – | – | – | – | – | – | – | – | – | – | – | – | – | – | binds | binds
